Reference: US9763884B2, “Drug delivery system” (EB IP HYBRITABS B.V., priority 2011, dated 2017)

What was measured:
[1] = general statement in the discussion, no source given; cited from earlier work
[2] = Pharmacokinetics of three single doses of sublingual testosterone solution in healthy premenopausal women; conditions: for AUC(0-t) / Cmax / MRT / Tmax / half-life / bioavailability: female, human, in vivo; for AUC(0-t) / Cmax / MRT / Tmax / half-life: serum; for AUC(0-t) / Cmax: geometric mean (% CV); for MRT / Tmax / half-life: mean ± SD
Method: All 16 subjects received each investigational drug dose once in random order. Wash-out between treatments was at least 48 h. Subjects had serial blood samples drawn via an intravenous catheter. Pharmacokinetic parameters were monitored at baseline and (at 2, 4, 6, 8, 10, 20, 30, 60, 90, 120, 180, 230 min) after dosing.
Blood samples in the placebo condition were only measured at −5, 10, 60 and 230 min.
For the placebo solution 0.50 ml was administered.
The different doses were prepared by an unblinded research associate and administered by blinded research associates. The blinded research associate administered the solution into the subjects mouth under the tongue, the subjects were instructed to keep the solution sublingually for 1 minute while moving the tongue slightly to optimize absorption. After 1 minute the blinded research associate instructed the subject to swallow the solution.
E2 was analysed by a chemiluminescence immunoassay (Siemens), the LLOQ was […]. 3α-diol-G was measured by ELISA (BioVendor), the LLOQ was 0.25 ng/mL. SHBG was measured by an electrochemiluminescent assay (ECLIA, Roche). Albumin was measured by Roche Bromocresol Green (BCG) analysis (Roche).
The pharmacokinetic parameters were analyzed using the WinNonlin software (version 5.1). Pharmacokinetic parameters including area under the curve, t=0 till t=230 min (AUC0-230), maximum concentration (Cmax) and time to maximum concentration (tmax) were calculated based on actual and baseline corrected individual concentration time curves. AUCs were estimated using the linear trapezoidal rule. Individual pharmacokinetic parameters AUC0-230 and Cmax and corresponding dose normalized parameters were log transformed and analyzed using a mixed maximum likelihood analysis (PROC MIXED in SAS, version 9.1) including subject as a random factor and drug as a fixed effect factor. Contrasts were made of the least square means to compare the different doses. Tmax was analyzed using a Wilcoxon rank sum test. This was based on the planned times corresponding to the actual tmax to prevent bias in analysis results based on differences in sampling times.
Subsequently, we divided the subjects into two subgroups, on the basis of their baseline SHBG levels (mean of placebo, 0.25, 0.50, 0.75 mg predose levels). This subdivision was based on a median split of the baseline SHBG levels. One group (N=8) with low SHBG levels (≦63 nmol/L) and the other group (N=8) with relatively high SHBG levels (>63 nmol/L).

[3] = Clinical cross-over pharmacokinetic study of F1 versus F2 (testosterone and sildenafil citrate) in healthy pre-menopausal women; conditions: female, human, plasma, other: sublingual, 0.5 mg
Method: Sildenafil (S) and N-desmethyl-sildenafil (NDS) concentrations were determined by HPLC-MS/MS as follows.
The human plasma samples were vortex mixed and 0.5 mL of the sample was transferred into a clean test tube to which 20 μL of an Internal Standard solution (10 ng/mL) in methanol was added and vortex mixed. Then, 4 mL Methyl-Tertiary-Butyl-Ether (MTBE) was added, tubes were capped and shaken for 10 minutes and then centrifuged for 5 minutes at 2000 rcf. The tubes were placed into a snap freezer and the bottom water layer was frozen. The supernatant was transferred into a clean tube and evaporated to dryness under a stream of nitrogen. […]
Cmax and Tmax were read from the observed values. The half life was calculated from the unweighted linear regression of the log transformed data determined at the elimination phase of the pharmacokinetic profile. The Area Under Curve (O-last) was determined as the area under the concentration versus time curve from the first time point to last time point with measurable drug concentration with a linear/log-linear trapezoidal model. The AUC (0-∞) was determined by extrapolation from the time point where the last measurable drug concentration (Cp) occurred to time infinity. […] Tlag was determined as the first time point with a measurable concentration.
The calculated concentrations were used for PK calculations.

[4] = 0.25 mg, free testosterone, 0.25 mg sublingual
[5] = 0.25 mg, total testosterone, 0.25 mg sublingual
[6] = 0.5 mg, free testosterone, 0.50 mg sublingual
[7] = 0.5 mg, total testosterone, 0.50 mg sublingual
[8] = 0.75 mg, free testosterone, 0.75 mg sublingual
[9] = 0.75 mg, total testosterone, 0.75 mg sublingual
[10] = subjects with high SHBG, 0.25 mg
[11] = subjects with high SHBG, 0.50 mg
[12] = subjects with high SHBG, 0.75 mg
[13] = subjects with low SHBG, 0.25 mg, at 20 min after dosing
[14] = subjects with low SHBG, 0.50 mg, at 20 min after dosing
[15] = subjects with low SHBG, 0.75 mg, at 20 min after dosing

C[C@]12CC[C@H]3[C@@H](CCC4=CC(=O)CC[C@@]43C)[C@@H]1CC[C@@H]2O [Testosterone, testosterone]
T1/2 of free testosterone (rapidly metabolized) [1]: 10 min | time at which serum free and total testosterone levels peaked ([2]; all three doses (0.25, 0.50, 0.75 mg) sublingual): 15 min | AUC(0-t) ([2]; 0.25 mg, Baseline corrected AUC 0-230, free testosterone, 0.25 mg sublingual): 0.0158 ng·h/mL | AUC(0-t) ([2]; 0.25 mg, Baseline corrected AUC 0-230, total testosterone, 0.25 mg sublingual): 3.23 ng·h/mL | Cmax [2, 4]: 0.021 ng/mL | Cmax [2, 5]: 3.79 ng/mL | MRT [2, 4]: 52.6 min | MRT [2, 5]: 57.7 min | Tmax [2, 4]: 15.6 min | Tmax [2, 5]: 15.6 min | half-life ([2]; 0.25 mg, t1/2, free testosterone, 0.25 mg sublingual): 42.3 ± 14.6 min | half-life ([2]; 0.25 mg, t1/2, total testosterone, 0.25 mg sublingual): 49.8 ± 16 min | bioavailability ([2]; 0.5 mg): 69% | AUC(0-t) ([2]; 0.5 mg, Baseline corrected AUC 0-230, free testosterone, 0.50 mg sublingual): 0.0252 ng·h/mL | AUC(0-t) ([2]; 0.5 mg, Baseline corrected AUC 0-230, total testosterone, 0.50 mg sublingual): 4.43 ng·h/mL | Cmax [2, 6]: 0.032 ng/mL | Cmax [2, 7]: 5.31 ng/mL | MRT [2, 6]: 57.1 min | MRT [2, 7]: 55.6 min | Tmax [2, 6]: 14.4 min | Tmax [2, 7]: 15.1 min | half-life ([2]; 0.5 mg, t1/2, free testosterone, 0.50 mg sublingual): 55.7 ± 27.5 min | half-life ([2]; 0.5 mg, t1/2, total testosterone, 0.50 mg sublingual): 49.7 ± 22.4 min | bioavailability ([2]; 0.75 mg): 58% | AUC(0-t) ([2]; 0.75 mg, Baseline corrected AUC 0-230, free testosterone, 0.75 mg sublingual): 0.0312 ng·h/mL | AUC(0-t) ([2]; 0.75 mg, Baseline corrected AUC 0-230, total testosterone, 0.75 mg sublingual): 5.62 ng·h/mL | Cmax [2, 8]: 0.043 ng/mL | Cmax [2, 9]: 6.73 ng/mL | MRT [2, 8]: 51.4 min | MRT [2, 9]: 59.5 min | Tmax [2, 8]: 12.8 min | Tmax [2, 9]: 14.3 min | half-life ([2]; 0.75 mg, t1/2, free testosterone, 0.75 mg sublingual): 51.1 ± 26.4 min | half-life ([2]; 0.75 mg, t1/2, total testosterone, 0.75 mg sublingual): 58.5 ± 24.6 min | influence on 3α-diol-G concentrations ([2]; increasing doses, t=0, 60, 120, 230): does not seem to influence | maximum levels of free testosterone [2, 10]: 0.018 ng/mL | maximum levels of total testosterone [2, 10]: 5.00 ng/mL | maximum levels of free testosterone [2, 11]: 0.026 ng/mL | maximum levels of total testosterone [2, 11]: 7.08 ng/mL | maximum levels of free testosterone [2, 12]: 0.034 ng/mL | maximum levels of total testosterone [2, 12]: 9.04 ng/mL | maximum levels of free testosterone [2, 13]: 0.026 ng/mL | maximum levels of total testosterone [2, 13]: 3.18 ng/mL | maximum levels of free testosterone [2, 14]: 0.039 ng/mL | maximum levels of total testosterone [2, 14]: 3.93 ng/mL | maximum levels of free testosterone [2, 15]: 0.048 ng/mL | maximum levels of total testosterone [2, 15]: 4.73 ng/mL | tolerability ([2]; three doses sublingual testosterone): well tolerated | Tmax [3]: 10 to 20 min | half-life [3]: ~37 min
